Patent publication US8058243B2, “Method for treating a brain cancer with ifenprodil” (HSC Research and Development Limited Partnership, priority 2006, dated 2011)
Where a name gives a salt, the structure may show the parent alone. Read-outs that look alike come from different tables or passages of the source.

System: murine neural precursor cells (neurosphere cultures)
Assay: HTS of LOPAC library against secondary neurosphere cultures, MTT proliferation assay at 3 μM, day 7 (z score, P value)
Format: cell-based, mouse
[1] = LOPAC library screen, 3 μM, MTT, neurosphere cultures
[2] = LOPAC primary screen, neurosphere MTT proliferation, 3 μM, day 7
[3] = yes/no: significantly inhibited neurosphere proliferation (P<0.01) in the primary screen
[4] = yes = significantly inhibited neurosphere proliferation (P<0.01) in the primary screen
[5] = LOPAC library screen at 3 μM, secondary neurosphere cultures, MTT
[6] = primary LOPAC screen, 3 μM, MTT, neurosphere proliferation
[7] = yes/no: significantly inhibited neurosphere proliferation in the primary screen
[8] = yes/no: significantly inhibited neurosphere proliferation in primary screen
[9] = LOPAC library screen at 3 μM, MTT, secondary neurosphere cultures, screened in singlets
[10] = LOPAC screen, neurosphere MTT proliferation, 3 μM, day 7
[11] = yes/no: significantly inhibited neurosphere proliferation (P<0.01) in primary screen

O=C1CC[C@@]2(O)[C@H]3Cc4ccc(O)c5c4[C@@]2(CCN3CC2CC2)[C@H]1O5 [Naltrexone hydrochloride]
Z Score [1]: 0.3891 | Z score [2]: 0.389 | Activity [3]: no

COc1ccc(CCN(C)CCCC(C#N)(c2cc(OC)c(OC)c(OC)c2)C(C)C)cc1OC.Cl (racemic) [(±)-Methoxyverapamil hydrochloride]
Z score [2]: −1.407 | Activity [4]: no

CC(=O)Oc1cc(C(C)C)c(OCCN(C)C)cc1C [Moxisylyte hydrochloride]
Z Score [5]: −1.018 | Z score [2]: −1.018 | Activity [4]: no

CC(=O)NCCc1c[nH]c2ccc(O)cc12 [N-Acetyl-5-hydroxytryptamine]
Z Score [5]: −1.06 | Z score [6]: −1.060 | Activity [7]: no

FC(F)(F)c1ccccc1-n1ccnc1 [1-[2-(Trifluoromethyl)phenyl]imidazole]
Z Score (168 h, 3 µM): −0.1576 | Z score (168 h, 3 µM): −0.158 | Activity [8]: no

COc1cc2c(cc1O)CC[C@@H]1[C@@H]2CC[C@]2(C)[C@@H](O)CC[C@@H]12 [2-methoxyestradiol]
Z Score [5]: −0.9833 | Z score [2]: −0.983 | Activity [4]: no

CC(Oc1ccc(Oc2cnc3ccc(Cl)cc3n2)cc1)C(=O)O (stereo not shown) [XK469]
Activity: yes | Z Score: −9.355 | Z score [2]: −9.355

Oc1ccc2c3c1O[C@H]1c4[nH]c5ccccc5c4C[C@@]4(O)[C@@H](C2)N(CC2CC2)CC[C@]314 [Naltrindole hydrochloride]
Z Score: −0.314 | Z score [2]: −0.314 | Activity [4]: no

C[C@H](O)C(=O)C1=Nc2c(nc(N)[nH]c2=O)NC1 [Sepiapterin]
Z Score (168 h, 3 µM): 1.795 | Z score (168 h, 3 µM): 1.795 | Activity [7]: no

CC(C)NC[C@@H](O)COc1ccc(CC(N)=O)cc1 [R(+)-Atenolol]
Z Score [9]: 3.764 | Z score [6]: 3.764 | Activity [7]: no

CCCCCCCC/C=C\CCCCCCCC(=O)O [Oleic acid]
Z score [2]: −0.345 | Activity [3]: no

COc1ccc2[nH]cc(CCNC(C)=O)c2c1 [Melatonin]
Z Score [5]: −0.2407 | Z score [2]: −0.241 | Activity [4]: no

C[C@H](Cc1ccc2c(c1)OC(C(=O)[O-])(C(=O)[O-])O2)NC[C@H](O)c1cccc(Cl)c1.[Na+].[Na+] [CL 316,243]
Z score [10]: 0.621 | Activity [11]: no

NCC(CP(=O)(O)O)c1ccc(Cl)cc1 (stereo not shown) [Phaclofen]
Z Score: 0.9701 | Z score [2]: 0.970 | Activity [8]: no

CCN(CCCl)Cc1ccccc1Br.Cl [DSP-4 hydrochloride]
Z Score: 1.518 | Z score [2]: 1.518 | Activity [3]: no

COc1ccccc1N1CCN(CCN(C(=O)C2CCCCC2)c2ccccn2)CC1.O=C(O)/C=C\C(=O)O [WAY-100635 maleate]
Z Score: −0.4965 | Z score [6]: −0.497 | Activity [7]: no

CC(=O)Nc1nnc(S(N)(=O)=O)s1 [Acetazolamide]
Z Score [1]: 1.111 | Z score [2]: 1.111 | Activity [4]: no

Cc1c(CC(C)(C)C(=O)O)n(Cc2ccc(Cl)cc2)c2ccc(F)cc12 [L-655,240]
Z Score: −0.121 | Z score [2]: −0.121 | Activity [11]: no

CC(C)(C(=O)O)c1ccc(C(O)CCCN2CCC(C(O)(c3ccccc3)c3ccccc3)CC2)cc1 (stereo not shown) [Fexofenadine hydrochloride]
Activity: no | Z Score [5]: −0.7572 | Z score [2]: −0.757

N=C(N)NC(=O)Cc1c(Cl)cccc1Cl [Guanfacine hydrochloride]
Z Score [1]: 0.9271

O=c1[nH]c2ccccc2n1C1CCN(CCCC(c2ccc(F)cc2)c2ccc(F)cc2)CC1 [Pimozide]
Z Score [5]: −0.2323 | Z score [2]: −0.232

CC(=O)O[C@H]1C[C@@]2(C)[C@@H](C[C@@H](O)[C@H]3[C@@]4(C)CC[C@@H](O)[C@@H](C)[C@@H]4CC[C@@]32C)/C1=C(\CCC=C(C)C)C(=O)O [Fusidic acid sodium]
Z Score [9]: 2.045 | Z score [2]: 2.045 | Activity [11]: no

Cl.O=C(O)Cc1c[nH]cn1 [Imidazole-4-acetic acid hydrochloride]
Z Score: −0.9223 | Z score [2]: −0.922 | Activity [11]: no

CC(N)=NCc1cccc(CN)c1.Cl.Cl [1400W dihydrochloride]
Z Score: −0.2749 | Z score [6]: −0.275 | Activity [7]: no

CC(=O)OC(C)C[N+](C)(C)C.[Cl-] (stereo not drawn) [Acetyl-beta-methylcholine chloride]
Z Score [5]: −0.3382 | Z score [6]: −0.338 | Activity [7]: no

CC[N+](C)(C)Cc1ccccc1Br [Bretylium tosylate]
Activity: no | Z Score [1]: −0.001709 | Z score [10]: −0.002

CNCC(O)c1ccc(O)c(O)c1.Cl (racemic) [(±)-Epinephrine hydrochloride]
Z score [2]: −0.328 | Activity [11]: no

CN(C)[C@@H]1C(O)=C(C(N)=O)C(=O)[C@@]2(O)C(O)=C3C(=O)c4c(O)ccc(Cl)c4[C@@H](O)[C@H]3C[C@@H]12 [Demeclocycline hydrochloride]
Z Score [1]: −0.06452 | Z score [10]: −0.065 | Activity [11]: no

CN(C)CCCN1c2ccccc2CCc2ccccc21 [Imipramine hydrochloride]
Activity: no | Z Score [5]: −0.5272 | Z score [2]: −0.527

trans-(±)-ACPD
Z score [6]: 0.315 | Activity [7]: no

COc1ccc(CCN(C)CCc2ccc(OC)c(OC)c2)cc1OC.Cl [YS-035 hydrochloride]
Z Score: 0.04311 | Z score [2]: 0.043 | Activity [3]: no

C[N+](C)(C)CCCCCCCCCC[N+](C)(C)C.[Br-].[Br-] [Decamethonium dibromide]
Z Score: −1.572 | Z score [2]: −1.572 | Activity [3]: no

O=C1NC(=O)C(c2ccccc2)(c2ccccc2)N1 [5,5-Diphenylhydantoin]
Z Score [1]: 1.383 | Z score [10]: 1.383 | Activity [11]: no

CCC1(C)CC(=O)NC1=O (stereo not shown) [Ethosuximide]
Z Score [5]: −0.6124 | Z score [2]: −0.612 | Activity [11]: no

Brc1c(NC2=NCCN2)ccc2nccnc12 [UK 14,304]
Activity: no | Z Score: −0.2103 | Z score: −0.210

Clc1ccc(N2CC3CCC(C2)N3)nn1 [DBO-83]
Z Score: −1.279 | Z score [10]: −1.279 | Activity [11]: no

Cn1cnc2c1c(=O)[nH]c(=O)n2C [Theobromine]
Z Score (168 h, 3 µM): −1.392 | Z score (168 h, 3 µM): −1.392 | Activity [7]: no

Br.CCCN1CCC2c3cc(O)ccc3CCC21 (racemic) [cis-(±)-8-OH-PBZI hydrobromide]
Z score [2]: −2.297 | Activity [3]: no

O=C(O)CN(CCN(CC(=O)O)CC(=O)O)CCN(CC(=O)O)CC(=O)O [Diethylenetriaminepentaacetic acid]
Z Score [5]: −0.4576 | Z score [2]: −0.458 | Activity [3]: no

N[C@@H]1CONC1=O [D-Cycloserine]
Z Score (LOPAC library screen, 3 μM, MTT, secondary neurosphere cultures, day 7): −1.24 | Z score [10]: −1.240 | Activity [11]: no

CCCCCCC(C(C)O)n1cnc2c(N)ncnc21.Cl (stereo not shown)
Z Score [5]: −0.7656 | Z score [2]: −0.766 | Activity [11]: no

N#CCCN.N#CCCN.O=C(O)/C=C/C(=O)O [3-Aminopropionitrile fumarate]
Z Score: 1.234 | Z score [6]: 1.234 | Activity [7]: no

COc1ccc(CN(CCN(C)C)c2ccccn2)cc1 [Pyrilamine maleate]
Z Score [1]: 0.9893 | Z score [2]: 0.989 | Activity [4]: no

NC(=O)CN1CC(O)CC1=O (stereo not shown) [Oxiracetam]
Z Score [5]: −0.6131 | Z score [2]: −0.613 | Activity [8]: no

CCCOC(=O)c1c(-c2ccccc2)nc(CC)c(C(=O)SCC)c1CCC [MRS 1523]
Z Score: −0.001312 | Z score [2]: −0.001 | Activity [4]: no

CCCCN1CCC(COC(=O)c2cc(Cl)c(N)c3c2OCCO3)CC1.Cl [SB 204070 hydrochloride]
Z Score: −5.886 | Z score [2]: −5.886 | Activity [3]: yes

C1COC(NC(C2CC2)C2CC2)=N1 [Rilmenidine hemifumarate]
Z Score [1]: 0.5264 | Z score [2]: 0.526 | Activity [8]: no

O=C(OCCN1CCOCC1)C1(c2ccccc2)CCCCC1 [PRE-084]
Z Score: 1.311 | Z score [2]: 1.311 | Activity [3]: no

CNCCCC1c2ccccc2C=Cc2ccccc21 [Protriptyline hydrochloride]
Z Score [1]: 0.7603 | Z score [2]: 0.760 | Activity [8]: no

Nc1ccc(N2C(=O)c3ccccc3C2=O)c(Cl)c1 [L-655,708]
Z Score: −0.6132 | Z score [2]: −0.613 | Activity [11]: no

N=C(NCCC[C@H](N)C(=O)O)N[N+](=O)[O-] [NG-Nitro-L-arginine]
Z Score [1]: 0.1385 | Z score [2]: 0.139 | Activity [4]: no

Cl.Clc1cc(I)cc(Cl)c1NC1=NCCN1 [p-Iodoclonidine hydrochloride]
Z Score: −0.1606 | Z score [2]: −0.161 | Activity [11]: no

CCCC(C)(COC(N)=O)COC(=O)NC(C)C (stereo not shown) [Carisoprodol]
Z Score: −1.795 | Z score [10]: −1.795 | Activity [11]: no

Br.CN1CCc2cc(O)c(O)cc2C(c2ccccc2)C1 (stereo not shown) [SKF 75670 hydrobromide]
Z Score: −0.1421 | Z score [2]: −0.142 | Activity [8]: no

Br.CCCN1CCC[C@@H]2c3ccc(O)cc3CC[C@@H]21 [cis-(B1)-8-OH-PBZI hydrobromide]
Z Score: −2.297
